Results on seven compounds are retold here after patent publication US20160263081A1, “ANTIPARASITIC AGENT” (NAI INC., priority 2013, published 2016).

pIC50, pKi: −log10 of the molar value. Where “and” joins values, the source holds several entries; their conditions need not be identical. Equal values may be shown once. Read-outs that look alike come from different tables or passages of the source.

For test [1], the system named is T. cruzi amastigote. Particulars: cited from earlier work.
Test [2] has as its system T. b. brucei bloodstream form. Kind of test: Proliferation by Alamar Blue method, T. b. brucei bloodstream form. Type of test: cell-based. The conditions noted are these: Trypanosoma brucei, read-out: Celluler IC50. The source says: (§1) Siccanin inhibits trypanosomatid and plasmodia complex II with IC50 values on the nM order. Based on this fact, the present inventors further measured the impact of siccanin on the proliferation of parasites (Table 3). The species of the organisms used in the present study were: nonpathogenic leishmanial protozoan L. tarentolae promastigote (insect form), cutaneous leishmaniasis pathogen L. major promastigote (insect form), visceral leishmaniasis pathogen L. donovani promastigote (insect form), related species of African sleeping sickness pathogen T. b. brucei bloodstream form, Chagas disease pathogen T. cruzi amastigote (cell form), and plasmodia P. falciparum erythrocytic stage (Table 3). T. b. brucei bloodstream form and T. cruzi amastigote correspond to the stages found in mammalian hosts and can be used as target forms in drug treatments for African trypanosomiasis and Chagas disease.
(§2) In the presence of 0.05 to 50 μM siccanin, the proliferation of L. tarentolae promastigote, L. donovani promastigote, L. major promastigote, and T. brucei bloodstream form was measured by Alamar Blue method. […] The growth inhibitory effect of siccanin on T. cruzi was evaluated by counting the T. cruzi amastigote population that infected mouse cells. As compared with DMSO control, the number of the protozoa decreased by 50% in the presence of 10 μM siccanin. […]
For orientation: The colour change of resazurin is a common sign of viable cells or microbes.

Test [3] concerns L. tarentolae complex II SDH activity. Kind of test: Succinate dehydrogenase (SDH) reaction with PMS and MTT, L. tarentolae complex II. The test is classed as biochemical, Leishmania tarentolae. Particulars: 50 μM siccanin. The method, then: (§3) In order to estimate the inhibitory mechanism of siccanin against complex II, the inhibitory pattern was determined by Lineweaver-Burk plot using succinate and quinone as the substrates. As samples for measurement, nematode complex II from A. suum and complex II from L. tarentolae, which is an easy-to-handle trypanosomatid, were used. […] The SDH activity is catalyzed by only subunits Fp and Ip of complex II and the quinone-binding domain is not essential for the reaction.

For the next test, the system named is T. mentagrophytes. The conditions noted are these: glycol salicylate ointment containing 1% siccanin applied 3-8 days after infection, albino guinea pigs, N=20; cited from earlier work.
Test [4] deals with P. falciparum erythrocytic stage. Kind of test: P. falciparum proliferation by LDH assay. The test is classed as cell-based, Plasmodium falciparum. Particulars: read-out: Celluler IC50.
Text: as §1, §2

Test [5] has as its system L. major promastigote. Nature of the test: Proliferation by Alamar Blue method, L. major promastigote. The test is classed as cell-based. The conditions noted are these: Leishmania major, read-out: Celluler IC50.
Text: as §1, §2

The subject of a further test is D. immitis complex II. Type of test: biochemical, Dirofilaria immitis.
The next test deals with L. tarentolae complex II. The test is classed as biochemical, Leishmania tarentolae.
Test [6] deals with T1, A. suum respiratory chain complex II (Ascaris suum, UniProt O44074+P92506+P92507).
T1 construct: measured using A. suum imago complex II; from tissue; host or cells: adult (imago) Ascaris suum
T1 sequence (Q33862 19-645 partner): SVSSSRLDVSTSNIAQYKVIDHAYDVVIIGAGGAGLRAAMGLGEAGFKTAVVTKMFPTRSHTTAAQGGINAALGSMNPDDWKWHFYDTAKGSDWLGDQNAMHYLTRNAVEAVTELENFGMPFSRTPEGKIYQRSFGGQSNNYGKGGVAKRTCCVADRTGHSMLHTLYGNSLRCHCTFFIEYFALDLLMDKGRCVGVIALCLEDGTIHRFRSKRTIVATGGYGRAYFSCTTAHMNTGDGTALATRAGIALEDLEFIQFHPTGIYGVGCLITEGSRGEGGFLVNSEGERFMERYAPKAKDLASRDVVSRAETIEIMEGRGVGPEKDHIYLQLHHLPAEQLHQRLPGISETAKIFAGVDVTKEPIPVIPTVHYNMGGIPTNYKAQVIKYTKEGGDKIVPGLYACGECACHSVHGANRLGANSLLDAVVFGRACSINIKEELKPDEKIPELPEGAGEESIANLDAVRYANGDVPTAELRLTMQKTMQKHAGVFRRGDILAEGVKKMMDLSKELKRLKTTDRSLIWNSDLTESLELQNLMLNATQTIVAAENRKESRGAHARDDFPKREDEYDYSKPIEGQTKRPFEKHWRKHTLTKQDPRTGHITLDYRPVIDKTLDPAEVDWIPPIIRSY
T1 sequence (O44074 22-282): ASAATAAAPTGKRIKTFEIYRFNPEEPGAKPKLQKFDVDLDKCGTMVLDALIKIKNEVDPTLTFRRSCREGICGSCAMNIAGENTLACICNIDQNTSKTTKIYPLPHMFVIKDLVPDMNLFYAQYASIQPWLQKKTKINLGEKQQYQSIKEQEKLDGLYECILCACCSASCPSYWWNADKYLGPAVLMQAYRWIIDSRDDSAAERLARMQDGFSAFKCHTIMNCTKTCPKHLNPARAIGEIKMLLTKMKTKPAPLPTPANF
T1 sequence (P92506 32-188): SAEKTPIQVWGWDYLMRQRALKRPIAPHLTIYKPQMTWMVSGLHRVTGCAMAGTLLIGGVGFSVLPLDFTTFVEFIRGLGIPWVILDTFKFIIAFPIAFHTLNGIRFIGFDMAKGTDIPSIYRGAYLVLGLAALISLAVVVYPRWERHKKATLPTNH
T1 sequence (P92507 26-156): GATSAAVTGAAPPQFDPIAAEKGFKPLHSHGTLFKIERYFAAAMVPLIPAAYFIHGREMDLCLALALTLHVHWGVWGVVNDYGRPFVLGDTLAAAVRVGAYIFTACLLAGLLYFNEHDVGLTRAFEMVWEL
Kind of test: Lineweaver-Burk inhibition pattern, A. suum complex II. Particulars: for pKi: A. suum SQR activity, for quinone (decylubiquinone). The test is classed as biochemical. The method, then: FIG. 1 is a graph which represents the inhibition pattern of siccanin against A. suum respiratory chain complex II.
as §3

Test [7] relates to L. tarentolae promastigote. Kind of test: Proliferation by Alamar Blue method, L. tarentolae promastigote. The conditions noted are these: Leishmania tarentolae, read-out: Celluler IC50. The test is classed as cell-based.
Text: as §1, §2

The subject of another test is P. falciparum complex II. Type of test: biochemical, Plasmodium falciparum.
Another test relates to T. cruzi complex II. Type of test: biochemical, Trypanosoma cruzi.
The target in test [8] is T2, A. suum complex II SDH activity (Ascaris suum, UniProt O44074+P92506+P92507).
T2 construct: measured using A. suum imago complex II; from tissue; host or cells: adult (imago) Ascaris suum
Nature of the test: Succinate dehydrogenase (SDH) reaction with PMS and MTT, A. suum complex II. Type of test: biochemical. The conditions noted are these: 50 μM siccanin. How it is done: as §3

The test system of test [9] is Pseudomonas aeruginosa complex II. The conditions noted are these: cited from earlier work.
Test [10] relates to T. mentagrophytes respiratory chain complex II. The conditions noted are these: cited from earlier work.
Test [11] has as its system T. mentagrophytes mitochondria. The conditions noted are these: cited from earlier work.
Test [12] has as its target Escherichia coli complex II (Escherichia coli, UniProt P07014+P0AC44+P69054). The conditions noted are these: cited from earlier work.
The target in test [13] is T1, A. suum respiratory chain complex II. Kind of test: biochemical.
Test [14] concerns T. cruzi amastigote. Kind of test: Count of T. cruzi amastigotes infecting mouse cells. Type of test: cell-based, Trypanosoma cruzi.
Text: as §1, §2

Test [15] has as its target T3, pig complex II (Sus scrofa, UniProt A5GZW8+D0VWV4+Q007T0). Type of test: biochemical.
A further test concerns the target A. simplex complex II (Anisakis simplex, UniProt A0A0M3JRB2+A0A0M3KB13+A0A3P6RGD8). Nature of the test: biochemical.
In a further test the test system is T. b. brucei complex II. Type of test: biochemical, Trypanosoma brucei brucei.
Test [16] has as its system Trychophyton spp., Epidermophyton floccosum, and Microsporium gypseum. The conditions noted are these: cited from earlier work.
For another test, the system named is D. immitis microfilariae. The test is classed as cell-based, Dirofilaria immitis.
The subject of test [17] is L. donovani promastigote. Nature of the test: Proliferation by Alamar Blue method, L. donovani promastigote. Type of test: cell-based. Particulars: Leishmania donovani.
Text: as §1, §2

In another test the test system is H. contortus complex II. The test is classed as biochemical, Haemonchus contortus.
Test [18] concerns the target T3, pig complex II. The conditions noted are these: Non-Patent Document 21; cited from earlier work.
The next test deals with rat complex II (Rattus norvegicus, UniProt P21913+Q641Z9+Q6PCT8). The conditions noted are these: cited from earlier work.
The target of test [19] is L. tarentolae respiratory chain complex II. Nature of the test: Lineweaver-Burk inhibition pattern, L. tarentolae complex II. The conditions noted are these: for pKi: L. tarentolae SQR activity, for quinone (ubiquinone 1). Type of test: biochemical, Leishmania tarentolae. The method, then:
FIG. 2 is a graph which represents the inhibition pattern of siccanin against L. tarentolae respiratory chain complex II.
as §3

Test [20] relates to L. donovani promastigote. The conditions noted are these: cited from earlier work.
Test [21] has as its system L. major promastigote. The conditions noted are these: cited from earlier work.
The target in a further test is Ascaris suum complex II (Ascaris suum, UniProt O44074+P92506+P92507). The conditions noted are these: A. suum complex II; cited from earlier work.
Ascaris suum complex II, sequence (O44074 22-282): as the sequence (O44074 22-282) above
Ascaris suum complex II, sequence (P92506 32-188): as the sequence (P92506 32-188) above
Ascaris suum complex II, sequence (P92507 26-156): as the sequence (P92507 26-156) above
Ascaris suum complex II, sequence (Q33862 19-645, further chain): as the sequence (Q33862 19-645 partner) above
The mark [22] stands for this setting: complex II alone, read-out: Ki1.
Where [23] appears, read: complex of complex II and ubiquinone, read-out: Ki2.
Setting [24] is: A. suum complex II, Lineweaver-Burk plot.

T3 sequence (Q0QF01 43-664 partner): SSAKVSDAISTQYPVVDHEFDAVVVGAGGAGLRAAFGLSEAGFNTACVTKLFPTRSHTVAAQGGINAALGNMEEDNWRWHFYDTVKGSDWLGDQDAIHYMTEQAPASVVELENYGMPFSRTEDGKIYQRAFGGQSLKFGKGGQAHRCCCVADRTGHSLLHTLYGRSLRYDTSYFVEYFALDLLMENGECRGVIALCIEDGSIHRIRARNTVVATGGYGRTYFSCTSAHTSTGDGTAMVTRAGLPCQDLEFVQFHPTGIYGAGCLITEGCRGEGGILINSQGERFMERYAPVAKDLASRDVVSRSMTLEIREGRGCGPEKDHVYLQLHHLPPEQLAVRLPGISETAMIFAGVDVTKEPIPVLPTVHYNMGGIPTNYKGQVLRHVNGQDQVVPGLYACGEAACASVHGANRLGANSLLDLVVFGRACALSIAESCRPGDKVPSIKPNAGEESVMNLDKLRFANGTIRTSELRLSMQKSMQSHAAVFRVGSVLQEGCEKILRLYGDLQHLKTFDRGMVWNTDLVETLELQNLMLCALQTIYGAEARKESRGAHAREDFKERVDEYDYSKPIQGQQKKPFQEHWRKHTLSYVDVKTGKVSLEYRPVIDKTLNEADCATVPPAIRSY
T3 sequence (Q007T0 29-280): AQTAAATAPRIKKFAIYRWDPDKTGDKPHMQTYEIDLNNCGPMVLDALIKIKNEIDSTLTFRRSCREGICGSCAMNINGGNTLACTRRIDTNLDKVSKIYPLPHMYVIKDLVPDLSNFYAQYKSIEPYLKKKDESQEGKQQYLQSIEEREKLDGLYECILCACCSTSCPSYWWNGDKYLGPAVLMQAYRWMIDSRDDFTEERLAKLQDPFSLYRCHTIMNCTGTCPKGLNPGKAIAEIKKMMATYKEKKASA
T3 sequence (D0VWV4 30-169): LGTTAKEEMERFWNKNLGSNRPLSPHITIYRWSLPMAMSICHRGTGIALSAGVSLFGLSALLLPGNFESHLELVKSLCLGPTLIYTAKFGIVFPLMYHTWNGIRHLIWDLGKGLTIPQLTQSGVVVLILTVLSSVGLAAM
T3 sequence (A5GZW8 57-159 limits assumed): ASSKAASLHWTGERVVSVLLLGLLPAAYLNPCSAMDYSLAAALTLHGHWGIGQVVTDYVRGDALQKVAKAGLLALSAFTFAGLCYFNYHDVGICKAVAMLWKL
A. simplex complex II, sequence (A0A0M3JRB2 24-279): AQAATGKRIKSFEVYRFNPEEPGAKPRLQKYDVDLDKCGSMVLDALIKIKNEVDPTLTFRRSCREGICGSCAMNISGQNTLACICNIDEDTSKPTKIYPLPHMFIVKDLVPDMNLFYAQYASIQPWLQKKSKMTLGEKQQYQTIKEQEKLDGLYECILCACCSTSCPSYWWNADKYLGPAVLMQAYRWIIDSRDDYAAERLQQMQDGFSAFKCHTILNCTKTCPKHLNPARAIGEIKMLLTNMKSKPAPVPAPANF
A. simplex complex II, sequence (A0A3P6RGD8 1-99): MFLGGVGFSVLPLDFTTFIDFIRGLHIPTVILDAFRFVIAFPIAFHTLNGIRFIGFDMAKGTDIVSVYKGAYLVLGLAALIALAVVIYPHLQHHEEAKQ
A. simplex complex II, sequence (A0A0M3KB13 31-157): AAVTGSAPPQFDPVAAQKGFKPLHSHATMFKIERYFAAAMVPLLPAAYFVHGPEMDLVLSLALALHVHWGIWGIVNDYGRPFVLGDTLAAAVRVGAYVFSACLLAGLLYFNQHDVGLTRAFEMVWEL
A. simplex complex II, sequence (A0A0M3KCD2 1-354 partner): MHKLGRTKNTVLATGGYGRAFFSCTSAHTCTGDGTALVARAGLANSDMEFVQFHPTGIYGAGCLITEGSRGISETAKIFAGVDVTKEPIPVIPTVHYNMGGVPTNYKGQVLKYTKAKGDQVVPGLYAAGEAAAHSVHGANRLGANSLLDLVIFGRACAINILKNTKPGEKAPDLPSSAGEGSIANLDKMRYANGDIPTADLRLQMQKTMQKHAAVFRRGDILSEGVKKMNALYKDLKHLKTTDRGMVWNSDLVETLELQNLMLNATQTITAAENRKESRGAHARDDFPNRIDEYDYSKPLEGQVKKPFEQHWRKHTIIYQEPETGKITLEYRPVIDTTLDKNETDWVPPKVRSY

As usually defined, the pIC50 is −log10 of the IC50, conventionally taken in molar units. Take `CC1CS(=O)(=O)CCN1/N=C/c1ccc([N+](=O)[O-])o1` (stereo not shown) [nifurtimox]: the negative-log IC50 (pIC50) in the test on T. cruzi amastigote [1] is approximately 5.46.

What is called MIC is the lowest concentration that inhibits growth of the organism. For the compound `Cc1cc(O)c2c(c1)O[C@@]1(C)CC[C@H]3C(C)(C)CCC[C@]34CO[C@@H]2[C@H]41` [siccanin], the pIC50 in test [2] was 5.08; in test [4] (Plasmodium falciparum), 4.81; in [4] it was 4.80; with L. major promastigote [5], 4.89; in the test with D. immitis complex II (read-out: SQR IC50), 7.86; with L. tarentolae complex II (read-out: SQR IC50), 6.72. The pIC50 in test [7] is 5.36; in the test with P. falciparum complex II, 7.01; in the test with T. cruzi complex II (read-out: SQR IC50), 5.92; in test [9] (Pseudomonas aeruginosa complex II) it was 6.06; in test [10], 7.06; in test [12], 3.57. Further, the negative logarithm of the IC50 (pIC50) in test [13] is 8.24; with T. cruzi amastigote [14] (Trypanosoma cruzi, T. cruzi amastigote in mouse cells, read-out: Celluler IC50) it was 5.00; against A. simplex complex II, 7.95; in the test with T. b. brucei complex II (read-out: SQR IC50), 6.43; with L. donovani promastigote [17] (read-out: Celluler IC50) it was 6.15; with L. donovani promastigote [17] (read-out: IC50), 6.15. Besides, the results for the pIC50 in the test with H. contortus complex II (read-out: SQR IC50), on pig complex II [18] and on rat complex II were 7.74, 3.06 and 5.03, respectively. Further, the “inhibition of SDH activity” value in test [3] and in test [8] was “no inhibitory effects” in each case. For the same compound, the “subjects whose skin was completely cured” value in the test on T. mentagrophytes is recorded as 85-100%. Further, the Selectivity is recorded as 62391 fold in the test on D. immitis complex II; 4532 fold in the test on L. tarentolae complex II; 8675 in the test with P. falciparum complex II; 718 fold in the test with T. cruzi complex II; 180,000 fold in [13]; 1 on pig complex II [15]. For the same compound, the figures for the Selectivity on A. simplex complex II, with T. b. brucei complex II and in the test on H. contortus complex II were 76875 fold, 3189 fold and 47308 fold, respectively. Besides, the pKi was 8.52 and 8.28 in test [6] (setting [22]); 8.06 and 8.00 in test [6] (setting [23]); 7.41 in [19] (setting [22]); 6.99 in test [19] (setting [23]). Further, the “inhibitory pattern for quinone” value in test [6] (setting [24]) was “mixed inhibition”; in test [19] (L. tarentolae complex II, Lineweaver-Burk plot), “mixed inhibition”. Besides, in test [6] (setting [24]), the “inhibitory pattern for succinate” value is given as “non-competitive inhibition”. In [9] (membrane fraction of Pseudomonas aeruginosa), the “inhibition mode against quinone” value was “mixed inhibition”. In addition, the “inhibition of NADH- or ascorbate-dependant oxygen consumption” value in test [11] is listed as “does not inhibit”. For the same compound, the “selectivity relative to the selectivity of flutolanil” value in test [13] was “about 20 fold”. For the same compound, the “decrease in the number of the protozoa compared with DMSO control” value in the test on T. cruzi amastigote [14] (10 μM siccanin) worked out at 50%. Also, the MIC in [16] was 0.6 to 6.3 µg/mL. Besides, the “Motility (%)” value in the test on D. immitis microfilariae (5 μM, 0 hr) is on record as 100%; in the test with D. immitis microfilariae (5 μM, 24 hr), 75%; in the test with D. immitis microfilariae (5 μM, 48 hr), 50%; with D. immitis microfilariae (50 μM, 0 hr), 25%; in the test on D. immitis microfilariae (50 μM, 24 hr), 0%; in the test on D. immitis microfilariae (50 μM, 48 hr) it was 0%.

Turning to `O=C(Cn1ccnc1[N+](=O)[O-])NCc1ccccc1` [benznidazole], the negative-log IC50 (pIC50) in the test with T. cruzi amastigote [1] is approximately 4.66.

Turning to `C[C@@H]1[C@H](O)[C@@H](C)/C=C/C=C/C=C/C=C/C=C/C=C/C=C/[C@H](O[C@@H]2O[C@H](C)[C@@H](O)[C@H](N)[C@@H]2O)C[C@@H]2O[C@](O)(C[C@@H](O)C[C@@H](O)[C@H](O)CC[C@@H](O)C[C@@H](O)CC(=O)O[C@H]1C)C[C@H](O)[C@H]2C(=O)O` [Amphotericin B], the results for the negative logarithm of the IC50 (pIC50) in the test with L. donovani promastigote [20] and in the test on L. major promastigote [21] were approximately 7.92 and approximately 7.37, respectively.

As to `CC(C)Oc1cccc(NC(=O)c2ccccc2C(F)(F)F)c1` [flutolanil], the “selectivity over pig complex II” value on Ascaris suum complex II was 800 fold.

On to `CCCCCCCCCCCCCCCCOP(=O)([O-])OCC[N+](C)(C)C` [miltefosine], for which the values for the negative logarithm of the IC50 (pIC50) with L. donovani promastigote [20] and in the test on L. major promastigote [21] were approximately 6.35 and approximately 4.88, respectively.

In the case of ivermectin [reference compound], the “Motility (%)” value was 100% in the test on D. immitis microfilariae (5 μM, 0 hr); 75% in the test with D. immitis microfilariae (5 μM, 24 hr); 50% with D. immitis microfilariae (5 μM, 48 hr); 100% in the test with D. immitis microfilariae (50 μM, 0 hr); 50% in the test on D. immitis microfilariae (50 μM, 24 hr); 50% in the test on D. immitis microfilariae (50 μM, 48 hr).
